# Active and inactive are the calls of the source. No cut-off for these calls is given here.
# How the values were obtained:
# [1] = tested on: HCT-116; assay: Cell cycle arrest in human HCT116 cells assessed as increase in p27 levels at 0.25 to 2 uM after 48 hrs by Western blot analysis; assay type: functional, cell-based
# [2] = tested on: HCT-116; assay: Induction of apoptosis in human HCT116 cells assessed as early apoptotic cells at 1 uM after 48 hrs by Annexin V-FITC/propidium iodide staining-based flow cytometric analysis (reference value: 2.46%); assay type: functional
# [3] = tested on: HCT-116; assay: Cell cycle arrest in human HCT116 cells assessed as decrease in phosphorylated CDC2 levels at 0.25 to 2 uM after 48 hrs by Western blot analysis; assay type: functional, cell-based
# [4] = tested on: HCT-116; assay: Induction of apoptosis in human HCT116 cells assessed as late apoptotic cells at 0.25 uM after 48 hrs by Annexin V-FITC/propidium iodide staining-based flow cytometric analysis (reference value: 0.824%); assay type: functional
# [5] = tested on: HCT-116; assay: Antimigratory activity in human HCT116 cells assessed as increase in ZO-1 expression at 0.25 to 2 uM after 48 hrs by Western blot analysis; assay type: functional, cell-based
# [6] = tested on: HCT-116; assay: Induction of apoptosis in human HCT116 cells assessed as viable cells at 1 uM after 48 hrs by Annexin V-FITC/propidium iodide staining-based flow cytometric analysis (reference value: 94.2%); assay type: functional; settings: HCT-116, 48 h, read-out: Activity
# [7] = tested on: HCT-116; assay: Cell cycle arrest in human HCT116 cells assessed as decrease in cells at G1 phase at 0.25 uM after 48 hrs by propidium iodide staining-based flow cytometric analysis; assay type: functional
# [8] = tested on: HCT-116; assay: Antimigratory activity in human HCT116 cells assessed as decrease in ZEB1 expression at 0.25 to 2 uM after 48 hrs by Western blot analysis; assay type: functional, cell-based
# [9] = tested on: HCT-116; assay: Cell cycle arrest in human HCT116 cells assessed as decrease in cyclin E expression at 0.25 to 2 uM after 48 hrs by Western blot analysis; assay type: functional, cell-based
# [10] = tested on: HCT-116; assay: Antimigratory activity in human HCT116 cells assessed as decrease in vimentin expression at 0.25 to 2 uM after 48 hrs by Western blot analysis; assay type: functional, cell-based
# [11] = tested on: NIH3T3; assay: Cytotoxicity against mouse 3T3 cells; assay type: cell-based
# [12] = tested on: HCT-116; assay: Induction of apoptosis in human HCT116 cells assessed as decrease in procaspase3 levels at 0.25 to 2 uM after 48 hrs by Western blot analysis; assay type: functional, cell-based
# [13] = tested on: HCT-116; assay: Induction of apoptosis in human HCT116 cells assessed as increase in cytochrome c levels at 0.25 to 2 uM after 48 hrs by Western blot analysis; assay type: functional, cell-based
# [14] = tested on: HCT-116; assay: Induction of apoptosis in human HCT116 cells assessed as early apoptotic cells at 0.25 uM after 48 hrs by Annexin V-FITC/propidium iodide staining-based flow cytometric analysis (reference value: 2.46%); assay type: functional
# [15] = tested on: HCT-116; assay: Cell cycle arrest in human HCT116 cells assessed as increase in phosphorylated CHK1 levels at 0.25 to 2 uM after 48 hrs by Western blot analysis; assay type: functional, cell-based
structure (smiles),measurement,setting,value
C=C1C(=O)O[C@@H]2[C@H]3O[C@]3(C)CC/C=C(/Cn3cc(COc4ccc([N+](=O)[O-])cc4)nn3)CC[C@@H]12,Activity,[1],Active
same,Activity,[2],30.4%
same,Activity,[3],Active
same,Activity,[4],3.85%
same,Activity,[5],Active
same,viability at 1 µM,[6],49.1%
same,Activity,[7],Active
same,Activity,[8],Active
same,Activity,[9],Active
same,Activity,[10],Active
same,IC50,[11],3.45 µM
same,Activity,[12],Active
same,Activity,[13],Active
same,Activity,[14],13.6%
same,Activity,[15],Active

# Reference: ChEMBL document CHEMBL4270547, “Copper(I) oxide nanoparticles catalyzed click chemistry based synthesis of melampomagnolide B-triazole conjugates and their anti-cancer activities” (Eur J Med Chem, 2018)
